From US12414960B2, “Analogues of oleuropein and oleacein and uses thereof” (Attica Sciences Ltd., priority 2020, dated 2025)

How the values were obtained:
[1] = system: HeLa cervical cancer cells; experiment: XTT cell growth assay, HeLa; assay type: cell-based, human; details: Homo sapiens, HeLa, 24 h, NS = not statistically significant, read-out: Effectiveness to suppress HeLa cell growth (cell growth inhibition)
Text: (§1) The XTT assay is used to measure cellular metabolic activity as an indicator of cell viability, proliferation and cytotoxicity. This non-radioactive, colorimetric assay system was first described by Scudiero, et al. in 1988 (Paull, Kenneth D. et al., J Heterocycl Chem, 1988, 25: 911-914; Scudiero, Dominic A. et al., Cancer Res, 1988, 48: 4827-4833) and improved in subsequent years by several other investigators (Weislow, Owen S. et al., J Natl Cancer Inst, 1989, 81(8): 577-586; Roehm, N. W. et al., J Immunol Methods, 1991, 142: 257-265).
(§2) The XTT assay is based on the reduction of a yellow tetrazolium salt (sodium 3′-[1-(phenylaminocarbonyl)-3,4-tetrazolium]-bis (4-methoxy6-nitro) benzene sulfonic acid hydrate or XTT) to an orange formazan dye by metabolically active cells (FIG. 8). The formazan dye formed is soluble in aqueous solutions and is directly quantified using a scanning multiwell spectrophotometer (ELISA reader). An increase in number of living cells results in an increase in the overall activity of mitochondrial dehydrogenases in the sample. This increase directly correlates to the amount of orange formazan formed, as monitored by the absorbance. Reduced number of living cells leads to reduced metabolism of quaternary salt and therefore reduced absorption.
(§3) Cell viability was assessed using the XTT assay kit (Roche, Mannheim, Germany) as described previously (Kouka, Paraskevi et al., Oxid Med Cell Longev. 2019, Article ID 1870965). Briefly, cancer cells per well were cultured in a 96-well plate in Dulbecco's modified Eagle's medium (DMEM). Following a 24 h incubation, 5, 10 and 50 μM of the tested GS compound was diluted in a serum-free DMEM and administered for 24 h. Subsequently, 50 μL of the XTT reagent (50:1) was added to each well. After 4 h of incubation, the absorbance was monitored at 450 nm and also at 630 nm as a reference wavelength in a BioTek ELx800 microplate reader (BioTek Instruments Inc., Winooski, VT, USA). As a negative control, samples containing serum-free DMEM only were used.
HeLa is a human immortal cell line used in scientific research. It is the oldest and most commonly used human cell line. The line was derived from cervical cancer cells taken on Feb. 8, 1951 from Henrietta Lacks, a patient who died of cancer on Oct. 4, 1951.
(§4) The effects of exemplary compounds on cancer cell lines and one non-tumorigenic cell line (control) were investigated using a high throughput screening assay. More specifically, the effects of the GS compounds on cell growth was evaluated by the XTT assay for cell lines HepG2, HeLa, MCF7 ER+, MDA-MB-231, and MKN-45, and by the Cell Glo luminescence assay for cell lines MIA PaCa-2, HCT-116, MCF-10A, and PANC-1.

[2] = system: MCF-7 ER+ breast cancer cells; experiment: XTT cell growth assay, MCF-7 ER+; assay type: cell-based, human; details: Homo sapiens, MCF7, 24 h, NS = not statistically significant, read-out: Effectiveness to suppress MCF7 cell growth (cell growth inhibition)
Text: as §1, §2, §3
MCF-7 ER+ is a human breast cancer cell line isolated in 1970 from a person. Prior to MCF-7, it was not possible for cancer researchers to obtain a mammary cell line that was capable of living longer than a few months.
as §4

[3] = system: MDA-MB-231 triple negative breast cancer cells; experiment: XTT cell growth assay, MDA-MB-231; assay type: cell-based, human; details: Homo sapiens, MDA-MB-231, 24 h, NS = not statistically significant, read-out: Effectiveness to suppress MDA-MB-231 cell growth (cell growth inhibition)
Text: as §1, §2, §3
MDA-MB-231 is a human epithelial breast cancer cell line that was established from a pleural effusion of a person with a metastatic mammary adenocarcinomal and is one of the most commonly used breast cancer cell lines in medical research laboratories.
as §4

[4] = system: MCF-10A non-tumorigenic mammary epithelial cells; experiment: Cell Glo luminescence cell growth assay, MCF-10A normal cells; assay type: cell-based, human
Text: The CellTiter-Glo® Luminescent Cell Viability Assay (Promega Corporation; Madison, WI) is a homogeneous method of determining the number of viable cells in culture based on quantitation of the ATP present, an indicator of metabolically active cells. The homogeneous assay procedure involves adding the single reagent (CellTiter-Glo® Reagent) directly to cells cultured in serum-supplemented medium. The homogeneous “add-mix-measure” format results in cell lysis and generation of a luminescent signal proportional to the amount of ATP present. The amount of ATP is directly proportional to the number of cells present in culture.
Cancer cells (3,000 cells/well) were harvested in a 96-well plate. Then, the cancer cells were treated with GS compounds and incubated for 24 hours. The MT Cell Viability Substrate, NanoLuc® Enzyme and cell culture medium was equilibrated to 37° C. The 2× RealTime-Glo™ reagent was prepared by diluting the MT Cell Viability Substrate and NanoLuc® Enzyme in 37° C. cell culture medium to a 2× concentration for each reagent. […] The cells were kept for ˜20 minutes in the cell culture incubator and then luminescence was measured by using a plate-reading luminometer. […]
as §4, with “PANC-1. […]” for “PANC-1.”
The effect of GS27 on normal cell growth was evaluated using the MCF-10A cell line. […]
GS27, NDI-091143 and Nexletol (10 μM) were used to treat normal epithelial cells MCF-10A cells. […] Forty-eight hours post-treatment, the growth of MCF-10A cells was evaluated by CellTiter-Glo® Luminescent Cell Viability Assay, as discussed in Example 29.

[5] = Deoxyribose degradation assay (hydroxyl radical scavenging); assay type: biochemical; details: NS = not statistically significant
Experimental: The hydroxyl radical (OH.) is an extremely reactive in biological systems and has been implicated as highly damaging species in free radical pathology, capable of damaging biomolecules of the living cells. These radical combines with nucleotides in DNA and cause strand breakage leading to carcinogenesis, mutagenesis and cytotoxicity. Hydroxyl radical (OH.) scavenging capacity of an extract is directly related to its antioxidant activity.
The effect of extracts on hydroxyl radicals was assayed by using the deoxyribose method. 2-Deoxyribose is degraded on exposure to hydroxyl radicals generated by Fenton's reaction. The ability to neutralize the OH. is estimated as the rate of inhibition of the oxidation of 2-deoxyribose by the OH. (FIG. 5).
The measurement of the hydroxyl radical scavenging activity was evaluated for each of the GS compound by evaluating the pink chromogen absorption at 532 nm by spectrophotometry as described previously (Perjesi, Pal et al., Open Med Chem J., 2011, 5: 61-67

HepG2 liver cancer cells = experiment: XTT cell growth assay, HepG2; assay type: cell-based, human; details: Homo sapiens, HepG2, 24 h, NS = not statistically significant, read-out: Effectiveness to suppress HepG2 cell growth (cell growth inhibition)
Text: as §1, §2, §3
Hep G2 (or HepG2) is a human liver cancer cell line. Hep G2 is an immortal cell line which was derived from the liver tissue of an adolescent with a well-differentiated hepatocellular carcinoma. Hep G2 cells are a suitable in vitro model system for the study of polarized human hepatocytes.
as §4

[6] = system: MKN-45 gastric cancer cells; experiment: XTT cell growth assay, MKN-45; assay type: cell-based, human; details: Homo sapiens, MKN-45, 24 h, NS = not statistically significant, read-out: Effectiveness to suppress MKN-45 cell growth (cell growth inhibition)
Text: as §1, §2, §3
MKN-45 is a human gastric adenocarcinoma, established from the poorly differentiated adenocarcinoma of the stomach (medullary type) of a person.
as §4

[7] = ABTS radical cation scavenging assay; assay type: biochemical; details: NS = not statistically significant
Text: The method of estimating antioxidant capacity, based on the ability to interact with the ABTS.+ radical cation was first performed by Miller et al. in 1993 (Miller, Nicholas et al., Clinical Science, 1993, 84: 407-412, “A novel method for measuring the antioxidant capacity and its application to monitoring the antioxidant status in premature neonates”). The mechanism of interaction of the antioxidant agents to be examined with the ABTS.+ radical is similar to that of the DPPH. radical, which can be inactivated either by the addition of an electron or by the addition of a hydrogen atom. However, unlike the DPPH. radical, which is a stable radical from the beginning, the ABTS.+ radical must be produced by the oxidation of ABTS. Thus, in order to estimate the antioxidant capacity of a substance, the formation of the ABTS.+ radical must first precede and the addition of the substance to be examined must follow. The addition of the antioxidant agent is performed after the production of the root ABTS.+ to avoid the interaction of the antioxidant agents with the oxidizing agents used for the oxidation of ABTS.
The oxidation of ABTS takes place either through chemical reactions with various reagents or through the action of enzymes such as peroxidases. The ABTS.+ radical from the moment it is formed is stable, has a green color and absorbs at 730 nm. When a substance with antioxidant activity is added to the solution, then the ABTS.+ radical is reduced by the addition of a hydrogen (or electron) atom, resulting in reduced visual absorption.
To assess the antioxidant capacity of the samples, the oxidation of ABTS was performed enzymatically through the action of horseradish peroxidase (HRP), in the presence of H2O2 (FIG. 3)
The anti-oxidant capacity of the GS compounds was evaluated by performing the ABTS assay as previously described (Kouka, Paraskevi et al., Oxid Med Cell Longev. 2019, Article ID 1870965). Briefly, in a total reaction volume of 1 mL in distilled water (dH2O), ABTS.^+ (1 mM), H2O2 (30 μM), and horseradish peroxidase (HRP) (6 μM) in 50 mM phosphate-buffered saline were added. The solution was incubated for 45 min at room temperature (RT) in the dark. Finally, 10 μL of the tested GS compound at various concentrations was added, and the absorbance was monitored on a Hitachi U-1900 radio beam spectrophotometer (serial no. 2023-029; Hitachi Ltd.) at 730 nm. In each experiment, a blank without the HRP was used, while the ABTS.^+ radical solution without the extract was used as the control. The RSC percentage of the tested extracts was calculated using the following equation: RSC (%)=[(ODcontrol−ODcompound)/ODcontrol]×100, where ODcontrol and OD sample are the optical density (OD) values of the control and the test sample, respectively.

Compound | inhibition at 50 µM [1] [%] | inhibition at 50 µM [2] [%] | inhibition at 50 µM [3] [%] | inhibition at 10 µM ([4]; Homo sapiens, MCF-10A, 10 uM, 24 h, normal cells, safety control, NS = not statistically significant, read-out: Effectiveness to suppress MCF10A cell growth (cell growth inhibition)) [%] | effect on MCF-10A normal cell growth ([4]; 10 μM, forty-eight hours post-treatment) | Deoxyribose Degradation Assay IC50 [5] [μg extract/mL] | inhibition at 50 µM (HepG2 liver cancer cells) [%] | inhibition at 50 µM [6] [%] | ABTS Radical Cation Scavenging Assay IC50 [7] [μg extract/mL]
C/C=C(/C=O)[C@@H](CC=O)CC(=O)OC [GS16, (3S,4E)-4-Formyl-3-(2-oxoethyl)hex-4-enoic acid methyl ester] | 72.6 | 26.6 | 35 | 10.1 |  |  |  |  | 
CC(C)(CCCCCC(O)CCCCCC(C)(C)C(=O)O)C(=O)O [Nexletol, reference compound] |  |  |  |  | inhibitory effect |  |  |  | 
C/C=C(/C=O)[C@@H](CC=O)CC(=O)OCCc1cccc(O)c1 [GS20, (3S,4E)-4-formyl-3-(2-oxoethyl)-4-hexenoic acid 3-hydroxyphenethyl ester] | 56.4 | 36.1 | 56.4 |  |  | 20 | 50 | 84.1 | 50.2
